Experimental data: patent US20100298141A1, “SUBSTITUTED PYRIDINE N-OXIDE HERBICIDES” (E. I. DU PONT DE NEMOURS AND COMPANY, priority 2007, published 2010)

What was measured:
[1] = system: velvetleaf; experiment: Test A pre-/postemergence greenhouse test; format: in vivo, Abutilon theophrasti; details: for Velvetleaf plant response rating: 0 to 100 scale; for Plant response rating, Velvetleaf: 0 to 100 scale where 0 is no effect and 100 is complete control
Method in brief: (§1)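 Each test compound, dissolved in a non-phytotoxic solvent mixture with surfactant, was sprayed directly onto seeded soil (loam/sand blend) and, at the same moment, onto seedlings carrying one to two leaves. Around ten greenhouse days later, plants were rated visually for injury relative to untreated controls.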

[2] = system: common mallow; experiment: Test F preemergence test; format: in vivo, Malva sylvestris; details: scale 0 to 100
Method in brief: (§2)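 Preemergence application to planted seeds, or postemergence to sugarcane plants; compound in non-phytotoxic solvent mix plus surfactant. Greenhouse, 14-21 days. Visual rating vs. controls.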

[3] = system: giant foxtail; experiment: Test A pre-/postemergence greenhouse test; format: in vivo, Setaria faberi; details: for Foxtail, Giant plant response rating: 0 to 100 scale; for Plant response rating, Foxtail, Giant: 0 to 100 scale where 0 is no effect and 100 is complete control
Method in brief: as §1

[4] = system: green foxtail; experiment: Test F preemergence test; format: in vivo, Setaria viridis; details: scale 0 to 100
Method in brief: as §2

[5] = system: wheat; experiment: Test C pre-/postemergence test; format: in vivo, Triticum aestivum
Method in brief: (§3)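 Compounds in a non-phytotoxic solvent with surfactant applied preemergence to seeded pots and, at the same time, postemergence to plants 2–18 cm tall (1- to 4-leaf stage). Paddy tests: pots flooded to 3 cm, compound applied into the water, depth held throughout.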

[6] = system: field bindweed; experiment: Test F preemergence test; format: in vivo, Convolvulus arvensis; details: scale 0 to 100
Method in brief: as §2

[7] = system: southern sandbur; experiment: Test F preemergence test; format: in vivo, Cenchrus echinatus; details: scale 0 to 100
Method in brief: as §2

[8] = system: purple nutsedge; experiment: Test F preemergence test; format: in vivo, Cyperus rotundus; details: scale 0 to 100
Method in brief: as §2

[9] = system: common ragweed; experiment: Test C pre-/postemergence test; format: in vivo, Ambrosia elation; details: for Plant response rating, Ragweed: scale 0 to 100, 0 no effect, 100 complete control
Method in brief: as §3

[10] = system: annual bluegrass; experiment: Test F preemergence test; format: in vivo, Poa annua; details: scale 0 to 100
Method in brief: as §2

[11] = system: barnyardgrass; experiment: Test C flooded paddy test; format: in vivo, Echinochloa crus-galli; details: Flood
Method in brief: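 Ratings were visual and made relative to untreated controls after 13 to 15 greenhouse days.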

[12] = Postemergence, 125 g ai/ha, 0 is no effect, 100 is complete control
[13] = Postemergence, 500 g ai/ha, 0 is no effect, 100 is complete control
[14] = Preemergence, 125 g ai/ha, 0 no effect, 100 complete control
[15] = 62 g ai/ha, preemergence, scale 0 (no effect) to 100 (complete control)
[16] = preemergence, 125 g ai/ha, scale 0 (no effect) to 100 (complete control)
[17] = 62 g ai/ha, Preemergence, scale 0 to 100
[18] = 125 g ai/ha, preemergence, scale 0 (no effect) to 100 (complete control)
[19] = preemergence, 250 g ai/ha, scale 0 (no effect) to 100 (complete control)

Structure (SMILES): Cc1cc[n+]([O-])c(S(=O)(=O)C(C)c2c(C(F)(F)F)nn(C)c2OC(F)F)c1 (stereo not shown) [Compound 11]
- Velvetleaf plant response rating [1, 12]: 40
- Velvetleaf plant response rating [1, 13]: 60
- Velvetleaf plant response rating [1, 14]: 80
- Plant response rating, Velvetleaf ([1]; Preemergence, 500 g ai/ha): 90
- Mallow plant response rating ([2]; 62 g ai/ha, Preemergence): 100
- Mallow plant response rating ([2]; 125 g ai/ha, preemergence): 100
- Plant response rating, Mallow ([2]; Preemergence, 16 g ai/ha): 30
- Plant response rating, Mallow ([2]; Preemergence, 31 g ai/ha): 30
- Foxtail, Giant plant response rating [3, 12]: 70
- Foxtail, Giant plant response rating [3, 13]: 80
- Foxtail, Giant plant response rating [3, 14]: 100
- Plant response rating, Foxtail, Giant ([3]; Preemergence, 500 g ai/ha): 100
- Foxtail, Green plant response rating ([4]; 62 g ai/ha, Preemergence): 80
- Foxtail, Green plant response rating ([4]; 125 g ai/ha, preemergence): 90
- Plant response rating, Foxtail, Green ([4]; Preemergence, 16 g ai/ha): 5
- Plant response rating, Foxtail, Green ([4]; Preemergence, 31 g ai/ha): 35
- Wheat plant response rating [5, 15]: 20
- Plant response rating (0 to 100), Wheat ([5]; Preemergence, 250 g ai/ha): 85
- Wheat plant response rating [5, 16]: 80
- Field Bindweed plant response rating ([6]; 62 g ai/ha, Preemergence): 60
- Field Bindweed plant response rating ([6]; 125 g ai/ha, preemergence): 75
- Plant response rating, Field Bindweed ([6]; Preemergence, 16 g ai/ha): 0
- Plant response rating, Field Bindweed ([6]; Preemergence, 31 g ai/ha): 0
- Sandbur plant response rating ([7]; 62 g ai/ha, Preemergence): 100
- Sandbur plant response rating ([7]; 125 g ai/ha, preemergence): 100
- Plant response rating, Sandbur ([7]; Preemergence, 31 g ai/ha): 95
- Purple Nutsedge plant response rating ([8]; 62 g ai/ha, Preemergence): 100
- Purple Nutsedge plant response rating ([8]; 125 g ai/ha, preemergence): 100
- Plant response rating, Purple Nutsedge ([8]; Preemergence, 16 g ai/ha): 25
- Plant response rating, Purple Nutsedge ([8]; Preemergence, 31 g ai/ha): 65
- Ragweed plant response rating ([9]; 31 g ai/ha, Preemergence, scale 0 to 100): 55
- Ragweed plant response rating [9, 15]: 75
- Plant response rating (0 to 100), Ragweed ([9]; Preemergence, 250 g ai/ha): 100
- Ragweed plant response rating [9, 16]: 95
- Bluegrass plant response rating ([10]; 62 g ai/ha, Preemergence): 60
- Bluegrass plant response rating ([10]; 125 g ai/ha, preemergence): 90
- Plant response rating, Bluegrass ([10]; Preemergence, 16 g ai/ha): 0
- Plant response rating, Bluegrass ([10]; Preemergence, 31 g ai/ha): 30
- Plant response rating, Barnyardgrass ([11]; 31 g ai/ha, scale 0 to 100 (0 no effect, 100 complete control)): 0
- Plant response rating, Barnyardgrass ([11]; 62 g ai/ha, scale 0 to 100, 0 no effect, 100 complete control, 13 to 15 days): 70
- Plant response rating, Barnyardgrass ([11]; 125 g ai/ha, scale 0 to 100, 0 no effect, 100 complete control, 13 to 15 days): 75
- Plant response rating, Barnyardgrass ([11]; 250 g ai/ha, scale 0 to 100 (0 no effect, 100 complete control)): 85

Structure (SMILES): CCn1nc(C(F)(F)F)c(CS(=O)(=O)c2cc(C)cc[n+]2[O-])c1OCC(F)(F)F [Compound 64]
- Plant response rating, Velvetleaf ([1]; Postemergence, 125 g ai/ha): 60
- Velvetleaf plant response rating [1, 13]: 70
- Velvetleaf plant response rating [1, 14]: 50
- Plant response rating, Velvetleaf ([1]; Preemergence, 500 g ai/ha): 100
- Plant response rating, Mallow ([2]; 16 g ai/ha, preemergence): 0
- Mallow plant response rating ([2]; 62 g ai/ha, Preemergence): 75
- Mallow plant response rating ([2]; 125 g ai/ha, preemergence): 100
- Plant response rating, Mallow ([2]; Preemergence, 31 g ai/ha): 35
- Plant response rating, Foxtail, Giant ([3]; Postemergence, 125 g ai/ha): 80
- Foxtail, Giant plant response rating [3, 13]: 90
- Foxtail, Giant plant response rating [3, 14]: 100
- Plant response rating, Foxtail, Giant ([3]; Preemergence, 500 g ai/ha): 100
- Plant response rating, Foxtail, Green ([4]; 16 g ai/ha, preemergence): 15
- Foxtail, Green plant response rating ([4]; 62 g ai/ha, Preemergence): 95
- Foxtail, Green plant response rating ([4]; 125 g ai/ha, preemergence): 100
- Plant response rating, Foxtail, Green ([4]; Preemergence, 31 g ai/ha): 60
- Wheat plant response rating [5, 17]: 20
- Wheat plant response rating [5, 18]: 30
- Plant response rating (0 to 100), Wheat ([5]; Postemergence, 31 g ai/ha): 0
- Plant response rating (0 to 100), Wheat ([5]; Postemergence, 62 g ai/ha): 50
- Plant response rating, Wheat ([5]; Postemergence, 125 g ai/ha, scale 0 to 100, 0 no effect, 100 complete control): 65
- Plant response rating, Wheat ([5]; Postemergence, 250 g ai/ha, scale 0 to 100, 0 no effect, 100 complete control): 65
- Plant response rating, Wheat ([5]; Preemergence, 31 g ai/ha, scale 0 to 100 (0 no effect, 100 complete control)): 0
- Wheat plant response rating [5, 19]: 100
- Plant response rating, Field Bindweed ([6]; 16 g ai/ha, preemergence): 0
- Field Bindweed plant response rating ([6]; 62 g ai/ha, Preemergence): 0
- Field Bindweed plant response rating ([6]; 125 g ai/ha, preemergence): 40
- Plant response rating, Field Bindweed ([6]; Preemergence, 31 g ai/ha): 0
- Plant response rating, Sandbur ([7]; 16 g ai/ha, preemergence): 25
- Sandbur plant response rating ([7]; 125 g ai/ha, preemergence): 100
- Plant response rating, Sandbur ([7]; Preemergence, 62 g ai/ha): 80
- Plant response rating, Sandbur ([7]; Preemergence, 31 g ai/ha): 80
- Plant response rating, Purple Nutsedge ([8]; 16 g ai/ha, preemergence): 20
- Purple Nutsedge plant response rating ([8]; 62 g ai/ha, Preemergence): 50
- Purple Nutsedge plant response rating ([8]; 125 g ai/ha, preemergence): 80
- Plant response rating, Purple Nutsedge ([8]; Preemergence, 31 g ai/ha): 50
- Ragweed plant response rating [9, 17]: 85
- Ragweed plant response rating [9, 18]: 100
- Plant response rating (0 to 100), Ragweed ([9]; Postemergence, 31 g ai/ha): 0
- Plant response rating (0 to 100), Ragweed ([9]; Postemergence, 62 g ai/ha): 0
- Plant response rating, Ragweed ([9]; Postemergence, 125 g ai/ha): 0
- Plant response rating, Ragweed ([9]; Postemergence, 250 g ai/ha): 0
- Ragweed plant response rating [9, 19]: 100
- Plant response rating, Bluegrass ([10]; 16 g ai/ha, preemergence): 0
- Bluegrass plant response rating ([10]; 62 g ai/ha, Preemergence): 90
- Bluegrass plant response rating ([10]; 125 g ai/ha, preemergence): 90
- Plant response rating, Bluegrass ([10]; Preemergence, 31 g ai/ha): 0
- Plant response rating, Barnyardgrass ([11]; 62 g ai/ha, scale 0 to 100 (0 no effect, 100 complete control)): 0
- Plant response rating, Barnyardgrass ([11]; 250 g ai/ha, scale 0 to 100, 0 no effect, 100 complete control, 13 to 15 days): 20
